According to ChEMBL document CHEMBL3259629, “Discovery and optimization of piperidyl-1,2,3-triazole ureas as potent, selective, and in vivo-active inhibitors of α/β-hydrolase domain containing 6 (ABHD6)” (J Med Chem, 2013):

Experiments:
Conditions in all cases: Neuro2a, 3 nM
[1] = target: T1, Lysosomal thioesterase PPT2 (Mus musculus) (UniProt O35448)
T1 sequence (whole entry): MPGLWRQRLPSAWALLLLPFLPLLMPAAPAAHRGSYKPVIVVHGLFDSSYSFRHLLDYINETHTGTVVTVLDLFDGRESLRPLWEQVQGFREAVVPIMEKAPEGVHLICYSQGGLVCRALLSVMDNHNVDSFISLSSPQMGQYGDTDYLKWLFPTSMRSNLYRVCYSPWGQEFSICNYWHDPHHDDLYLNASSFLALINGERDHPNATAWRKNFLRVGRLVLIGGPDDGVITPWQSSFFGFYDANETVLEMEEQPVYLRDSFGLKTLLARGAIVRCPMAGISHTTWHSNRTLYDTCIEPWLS
Description: Inhibition of Ppt2 in mouse Neuro2a cells at 3 nM after 4 hrs by ABPP-SILAC assay

[2] = target: T2, Acylamino-acid-releasing enzyme (Mus musculus) (UniProt Q8R146)
T2 sequence (whole entry): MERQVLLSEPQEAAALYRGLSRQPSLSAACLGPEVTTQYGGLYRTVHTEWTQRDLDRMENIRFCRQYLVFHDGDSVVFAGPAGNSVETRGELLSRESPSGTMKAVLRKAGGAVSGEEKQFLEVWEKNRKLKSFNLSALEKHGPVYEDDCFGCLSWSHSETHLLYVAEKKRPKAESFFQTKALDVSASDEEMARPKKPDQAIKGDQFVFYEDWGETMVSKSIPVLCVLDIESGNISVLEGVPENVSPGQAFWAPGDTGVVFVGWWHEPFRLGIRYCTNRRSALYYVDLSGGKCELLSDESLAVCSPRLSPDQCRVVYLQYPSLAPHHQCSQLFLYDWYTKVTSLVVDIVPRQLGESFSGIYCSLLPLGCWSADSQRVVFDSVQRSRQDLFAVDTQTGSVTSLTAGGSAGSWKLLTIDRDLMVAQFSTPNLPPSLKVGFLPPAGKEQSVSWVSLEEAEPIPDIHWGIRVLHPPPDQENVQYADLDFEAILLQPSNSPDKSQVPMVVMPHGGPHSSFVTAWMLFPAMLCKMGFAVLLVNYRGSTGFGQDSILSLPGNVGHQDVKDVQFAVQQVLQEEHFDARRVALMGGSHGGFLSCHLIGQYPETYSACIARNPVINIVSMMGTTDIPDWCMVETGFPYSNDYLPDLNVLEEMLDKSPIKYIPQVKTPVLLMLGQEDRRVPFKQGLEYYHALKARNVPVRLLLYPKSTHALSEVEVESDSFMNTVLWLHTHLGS
Description: Inhibition of Apeh in mouse Neuro2a cells at 3 nM after 4 hrs by ABPP-SILAC assay

[3] = target: T3, Diacylglycerol lipase-beta (Mus musculus) (UniProt Q91WC9)
T3 sequence (whole entry): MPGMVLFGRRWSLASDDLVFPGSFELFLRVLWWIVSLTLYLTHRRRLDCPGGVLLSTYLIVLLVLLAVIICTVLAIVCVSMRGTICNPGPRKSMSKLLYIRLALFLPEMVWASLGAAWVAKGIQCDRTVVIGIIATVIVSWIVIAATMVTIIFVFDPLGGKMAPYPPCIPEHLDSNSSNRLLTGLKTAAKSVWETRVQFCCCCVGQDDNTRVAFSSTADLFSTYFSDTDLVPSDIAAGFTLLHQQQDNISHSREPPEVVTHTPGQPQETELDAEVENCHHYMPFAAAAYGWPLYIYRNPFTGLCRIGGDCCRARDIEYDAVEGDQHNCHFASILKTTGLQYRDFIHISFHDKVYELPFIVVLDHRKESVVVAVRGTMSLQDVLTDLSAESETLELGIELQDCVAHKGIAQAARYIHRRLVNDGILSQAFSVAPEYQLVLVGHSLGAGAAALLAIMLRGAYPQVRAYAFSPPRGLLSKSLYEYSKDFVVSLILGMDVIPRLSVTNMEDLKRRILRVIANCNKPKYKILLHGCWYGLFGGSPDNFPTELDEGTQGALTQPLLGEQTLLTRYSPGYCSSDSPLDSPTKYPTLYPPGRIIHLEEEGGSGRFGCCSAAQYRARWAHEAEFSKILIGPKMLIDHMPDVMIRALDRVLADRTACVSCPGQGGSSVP
Description: Inhibition of Daglb in mouse Neuro2a cells at 3 nM after 4 hrs by ABPP-SILAC assay

[4] = target: T4, Acyl-coenzyme A thioesterase 2, mitochondrial (Mus musculus) (UniProt Q9QYR9)
T4 sequence (whole entry): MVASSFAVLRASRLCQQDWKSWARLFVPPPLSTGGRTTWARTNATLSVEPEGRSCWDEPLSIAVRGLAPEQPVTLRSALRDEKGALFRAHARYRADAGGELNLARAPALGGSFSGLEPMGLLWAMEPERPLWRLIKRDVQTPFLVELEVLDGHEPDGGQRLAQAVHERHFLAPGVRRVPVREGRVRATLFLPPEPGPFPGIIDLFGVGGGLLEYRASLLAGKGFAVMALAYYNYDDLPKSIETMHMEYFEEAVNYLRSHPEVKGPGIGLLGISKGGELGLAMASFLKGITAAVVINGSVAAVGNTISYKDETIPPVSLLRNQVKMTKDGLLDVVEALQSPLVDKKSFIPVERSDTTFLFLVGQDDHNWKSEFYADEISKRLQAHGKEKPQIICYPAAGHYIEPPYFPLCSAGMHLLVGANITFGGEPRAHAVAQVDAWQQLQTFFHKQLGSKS
Description: Inhibition of Acot2 in mouse Neuro2a cells at 3 nM after 4 hrs by ABPP-SILAC assay

[5] = target: T5, Lysosomal protective protein (Mus musculus) (UniProt P16675)
T5 sequence (whole entry): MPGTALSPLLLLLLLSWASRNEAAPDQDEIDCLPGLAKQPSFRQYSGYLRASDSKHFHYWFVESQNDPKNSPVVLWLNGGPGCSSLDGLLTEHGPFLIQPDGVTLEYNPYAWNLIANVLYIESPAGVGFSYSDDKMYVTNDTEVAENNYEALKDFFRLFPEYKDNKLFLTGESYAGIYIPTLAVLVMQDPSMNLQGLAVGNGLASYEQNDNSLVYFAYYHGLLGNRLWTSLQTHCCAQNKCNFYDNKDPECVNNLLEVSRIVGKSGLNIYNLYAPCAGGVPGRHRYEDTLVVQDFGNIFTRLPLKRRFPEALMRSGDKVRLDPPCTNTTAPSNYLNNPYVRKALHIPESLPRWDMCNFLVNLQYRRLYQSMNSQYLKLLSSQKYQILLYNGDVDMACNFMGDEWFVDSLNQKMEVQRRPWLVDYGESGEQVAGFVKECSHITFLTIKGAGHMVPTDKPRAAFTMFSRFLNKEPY
Description: Inhibition of Ctsa in mouse Neuro2a cells at 3 nM after 4 hrs by ABPP-SILAC assay

Measured: inhibition

O=C(N1CCCCC1c1ccccc1)n1cc(-c2ccc(-c3cccc(CO)c3)cc2)nn1 (racemic)
< 50%: [1] | [2] | [3] | [4] | [5]

O=C(O)c1cccc(-c2ccc(-c3cn(C(=O)N4CCCCC4Cc4ccccc4)nn3)cc2)c1 (racemic)
< 50%: [1] | [2] | [3] | [4] | [5]

O=C(c1cccc(-c2ccc(-c3cn(C(=O)N4CCCCC4c4ccccc4)nn3)cc2)c1)N1CCCCC1 (racemic)
< 50%: [1] | [2] | [3] | [4] | [5]
